# Biological target: T1, S. aureus TrmD (Staphylococcus aureus, UniProt Q2FZ43)
# T1 construct: made in house; host or cells: E. coli BL21
# T1 sequence (Q2FZ43 1-245): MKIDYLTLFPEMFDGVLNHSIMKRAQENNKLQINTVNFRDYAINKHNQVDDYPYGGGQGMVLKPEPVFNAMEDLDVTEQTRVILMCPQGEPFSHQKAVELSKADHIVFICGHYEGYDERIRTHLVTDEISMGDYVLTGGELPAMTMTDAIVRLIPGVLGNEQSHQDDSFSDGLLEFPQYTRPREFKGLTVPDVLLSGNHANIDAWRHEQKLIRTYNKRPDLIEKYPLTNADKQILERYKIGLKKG
# Test: nanoSAR direct-to-biology FP displacement screening of crude triazoles
# Format: binding
# Conditions: crude triazole at 1 μM, assuming full conversion; 500 nM TrmD, 10 nM tracer 4; read-out: % displaced tracer
# Description: Next, we conducted an S. aureus TrmD-targeting nanoSAR study. For this, alkyne 7 was reacted on a 96 nmol scale with an in-house diversity-oriented azide library (N = 320, mean pairwise Tanimoto similarity = 0.11) designed to cover a large chemical fragment space, generating a panel of 320 crude triazoles ready for FP assay investigation. The composition of the azide library is designed to be chemically diverse in several categories, including physicochemical properties such as polar surface area, lipophilicity, and the number of hydrogen bond donors and acceptors, as well as structural features like the number of aromatic rings (Figure S23). A complete list of chemical structures included in the azide library can be found in Table S4. In situ reaction conditions for CuAAC were adapted from Gehrtz et al., utilizing CuSO4, which is reduced in situ to Cu(I) by sodium ascorbate and stabilized by TBTA. Degassed water and DMSO (1:1) were used as solvents to prevent the oxidation from Cu(I) to Cu(II). For the synthesis of the triazole library, a master mix was prepared, containing all reaction components except the azides. All reactions were started by the addition of the respective azide in 24 μL at a final product concentration of 4 mM (96 nmol). Reaction mixtures were incubated for 16 h at room temperature and under an argon atmosphere in sealed 96-well plates.
# For FP assay screening, we used 500 nM of S. aureus TrmD and 10 nM of tracer 4 in a total volume of 40 μL in 96-well plates. We performed control measurements and defined 10 nM of tracer 4 in buffer as 100% displacement and the DMSO control as 0% tracer displacement. […] The results of the FP screening were visualized in a waterfall plot and plate-based heatmaps (Figure , Figure S3).
# Fluorescence polarization (FP) assays were performed as follows. The assays for H. influenzae TrmD have been described previously. All assays were conducted in technical triplicate using black 96-well half area plates. For the FP assays, a tracer (20 nM Cy5TPD for E. coli and H. influenzae TrmD, 10 nM tracer 4 for S. aureus TrmD) was mixed with the respective enzyme (2 μM E. coli TrmD, 2 μM H. influenzae TrmD, 500 nM S. aureus TrmD) in buffer (E. coli and H. influenzae TrmD: 50 mM HEPES, 500 mM NaCl, 5% Glycerol, pH 7.5, S. aureus TrmD: 40 mM Tris HCl, 100 mM NaCl, 10 mM MgCl2, 5% Glycerol, pH 7.5). The compounds were added in varying concentrations for K D-value determination. […] The Z-factor for tracer 4 was determined by measuring 48 replicates of the free tracer (positive controls, PC) and 48 replicates of a mixture of enzyme and tracer (negative controls, NC). The Z-factor is defined in terms of the means (μ) and standard deviations (σ) of the positive and negative controls and calculated as Z = 1–(3*(σnc + σpc)/(μnc–μpc)). […] Polarization values (mP) were determined from polarization-specific parallel and orthogonal fluorescence intensities. K D-values were calculated in GraphPad Prism 8.0.1 using the four-parameter Hill equation: y(% tracer bound) = bottom + ([ligand]-slope) × (top–bottom)/([ligand]-slope + K Dslope).
# A commercial azide diversity library (Enamine) containing 320 azides at a concentration of 100 mM in DMSO in a 96-well tube rack was employed for this nanoSAR study. For the reaction of the azides with alkyne 7 via CuAAC, a master mix was prepared. […] The solvents were degassed with argon to avoid oxidation of the copper(I) during the reaction. To each well of a 96-well PCR plate (Applied Biosystems MicroAmp) were added 23 μL of the master mix and 1 μL of the 100 mM azide stock. The final concentrations in the Mastermix were: 8.7 mM sodium ascorbate (8.3 mM in reaction well), 1.1 mM TBTA (1.0 mM in reaction well), 4.3 mM 7 (4.1 mM in reaction well), 1.3 mM CuSO4×5 H2O (1.2 mM in reaction well).
row,Structure (SMILES),inhibition at 1 µM [%]
1,"N#Cc1ccc(Cn2cc(-c3c[nH]c4nc[nH]c(=O)c34)nn2)c(F)c1 [Compound 01A01, Fc1c(ccc(C#N)c1)CN2N=NC(C=3C=4C(=O)NC=NC4NC3)=C2]",12
2,"O=c1[nH]cnc2[nH]cc(-c3cn(Cc4cnn(-c5ccccc5)c4)nn3)c12 [Compound 01A02, O=C1NC=NC=2NC=C(C=3N=NN(C3)CC=4C=NN(c5ccccc5)C4)C12]",81
3,"O=c1[nH]cnc2[nH]cc(-c3cn(Cc4cccnn4)nn3)c12 [Compound 01A03, O=C1NC=NC=2NC=C(C=3N=NN(C3)Cc4nnccc4)C12]",65
4,"O=c1[nH]cnc2[nH]cc(-c3cn(CCN4CCCC4)nn3)c12 [Compound 01A04, O=C1NC=NC=2NC=C(C=3N=NN(C3)CC[NH+]4CCCC4)C12]",22
5,"CC(C)n1cc(-c2c[nH]c3nc[nH]c(=O)c23)nn1 [Compound 01A05, O=C1NC=NC=2NC=C(C=3N=NN(C3)C(C)C)C12]",23
6,"O=c1[nH]cnc2[nH]cc(-c3cn(C[C@H]4CCC[C@@]5(CCOC5)O4)nn3)c12 [Compound 01A06, O=C1NC=NC=2NC=C(C=3N=NN(C3)C[C@@H]4O[C@@]5(COCC5)CCC4)C12]",52
7,"O=c1[nH]cnc2[nH]cc(-c3cn(Cc4cc(C5CC5)no4)nn3)c12 [Compound 01A07, O=C1NC=NC=2NC=C(C=3N=NN(C3)CC=4ON=C(C4)C5CC5)C12]",77
8,"O=c1[nH]cnc2[nH]cc(-c3cn([C@@H]4C[C@H]5CCC[C@@H](C4)N5)nn3)c12 [Compound 01A08, O=C1NC=NC=2NC=C(C=3N=NN(C3)[C@@H]4C[C@@H]5[NH2+][C@H](C4)CCC5)C12]",38
9,"CC(C)CCn1cc(-c2c[nH]c3nc[nH]c(=O)c23)nn1 [Compound 01A09, O=C1NC=NC=2NC=C(C=3N=NN(C3)CCC(C)C)C12]",26
10,"O=C(Cn1cc(-c2c[nH]c3nc[nH]c(=O)c23)nn1)Nc1ccccc1 [Compound 01A10, O=C1NC=NC=2NC=C(C=3N=NN(C3)CC(=O)Nc4ccccc4)C12]",41
11,"O=c1[nH]cnc2[nH]cc(-c3cn(C[C@@H]4CC(F)(F)CO4)nn3)c12 [Compound 01A11, F[C@]1(F)CO[C@H](CN2N=NC(C=3C=4C(=O)NC=NC4NC3)=C2)C1]",44
12,"COc1cccc(C2(n3cc(-c4c[nH]c5nc[nH]c(=O)c45)nn3)CCC2)c1 [Compound 01A12, O=C1NC=NC=2NC=C(C=3N=NN(C3)C4(c5cc(OC)ccc5)CCC4)C12]",10
13,"O=c1[nH]cnc2[nH]cc(-c3cn([C@H]4CCCNC4)nn3)c12 [Compound 01B01, O=C1NC=NC=2NC=C(C=3N=NN(C3)[C@@H]4C[NH2+]CCC4)C12]",29
14,"Cc1ccc2nc(Cn3cc(-c4c[nH]c5nc[nH]c(=O)c45)nn3)cn2c1 [Compound 01B02, O=C1NC=NC=2NC=C(C=3N=NN(C3)CC=4N=C5N(C4)C=C(C=C5)C)C12]",57
15,"O=c1[nH]cnc2[nH]cc(-c3cn(-c4ccc5c(c4)CCO5)nn3)c12 [Compound 01B03, O=C1NC=NC=2NC=C(C=3N=NN(c4cc5c(OCC5)cc4)C3)C12]",52
16,"Cc1ccc2c(c1)[C@H](n1cc(-c3c[nH]c4nc[nH]c(=O)c34)nn1)CCC2 [Compound 01B04, O=C1NC=NC=2NC=C(C=3N=NN(C3)[C@H]4c5c(ccc(c5)C)CCC4)C12]",27
17,"O=c1[nH]cnc2[nH]cc(-c3cn(C4CC4)nn3)c12 [Compound 01B05, O=C1NC=NC=2NC=C(C=3N=NN(C3)C4CC4)C12]",12
18,"O=c1[nH]cnc2[nH]cc(-c3cn(CC4CNC4)nn3)c12 [Compound 01B06, O=C1NC=NC=2NC=C(C=3N=NN(C3)CC4C[NH2+]C4)C12]",62

row,Structure (SMILES),inhibition at 1 µM [%]
1,"O=c1[nH]cnc2[nH]cc(-c3cn([C@@H]4CCOC5(CCNCC5)C4)nn3)c12 [Compound 01B07, O=C1NC=NC=2NC=C(C=3N=NN(C3)[C@H]4CC5(OCC4)CC[NH2+]CC5)C12]",34
2,"O=c1[nH]cnc2[nH]cc(-c3cn(Cc4nc5ccccc5[nH]4)nn3)c12 [Compound 01B08, O=C1NC=NC=2NC=C(C=3N=NN(C3)CC4=Nc5c(N4)cccc5)C12]",43
3,"O=c1[nH]cnc2[nH]cc(-c3cn(CCCCF)nn3)c12 [Compound 01B09, FCCCCN1N=NC(C=2C=3C(=O)NC=NC3NC2)=C1]",19
4,"O=c1[nH]cnc2[nH]cc(-c3cn(CC4CCCCC4)nn3)c12 [Compound 01B10, O=C1NC=NC=2NC=C(C=3N=NN(C3)CC4CCCCC4)C12]",33
5,"O=c1[nH]cnc2[nH]cc(-c3cn(-c4ccc(OC(F)(F)F)c(Cl)c4)nn3)c12 [Compound 01B11, Clc1c(OC(F)(F)F)ccc(N2N=NC(C=3C=4C(=O)NC=NC4NC3)=C2)c1]",16
6,"CCOCCn1cc(-c2c[nH]c3nc[nH]c(=O)c23)nn1 [Compound 01B12, O=C1NC=NC=2NC=C(C=3N=NN(C3)CCOCC)C12]",21
7,"C[C@@H](c1cnnn1C)n1cc(-c2c[nH]c3nc[nH]c(=O)c23)nn1 [Compound 01C01, O=C1NC=NC=2NC=C(C=3N=NN(C3)[C@H](C=4N(N=NC4)C)C)C12]",33
8,"Cc1nnc(Cn2cc(-c3c[nH]c4nc[nH]c(=O)c34)nn2)o1 [Compound 01C02, O=C1NC=NC=2NC=C(C=3N=NN(C3)CC=4OC(=NN4)C)C12]",27
9,"O=c1[nH]cnc2[nH]cc(-c3cn([C@@H]4CCc5cc(Cl)ccc54)nn3)c12 [Compound 01C03, Clc1cc2c(cc1)[C@H](N3N=NC(C=4C=5C(=O)NC=NC5NC4)=C3)CC2]",72
10,"O=c1[nH]cnc2[nH]cc(-c3cn(Cc4noc5c4CCC5)nn3)c12 [Compound 01C04, O=C1NC=NC=2NC=C(C=3N=NN(C3)CC4=NOC5=C4CCC5)C12]",41
11,"O=c1[nH]cnc2[nH]cc(-c3cn(CCF)nn3)c12 [Compound 01C05, FCCN1N=NC(C=2C=3C(=O)NC=NC3NC2)=C1]",22
12,"O=c1[nH]cnc2[nH]cc(-c3cn(C[C@H]4CCCO4)nn3)c12 [Compound 01C06, O=C1NC=NC=2NC=C(C=3N=NN(C3)C[C@@H]4OCCC4)C12]",24
13,"COCc1cccc(-n2cc(-c3c[nH]c4nc[nH]c(=O)c34)nn2)c1 [Compound 01C07, O=C1NC=NC=2NC=C(C=3N=NN(c4cc(ccc4)COC)C3)C12]",17
14,"O=c1[nH]cnc2[nH]cc(-c3cn(CCCOC4CCC4)nn3)c12 [Compound 01C08, O=C1NC=NC=2NC=C(C=3N=NN(C3)CCCOC4CCC4)C12]",27
15,"O=c1[nH]cnc2[nH]cc(-c3cn(Cc4ncon4)nn3)c12 [Compound 01C09, O=C1NC=NC=2NC=C(C=3N=NN(C3)CC4=NOC=N4)C12]",31
16,"CCN(CC)C(=O)Cn1cc(-c2c[nH]c3nc[nH]c(=O)c23)nn1 [Compound 01C10, O=C1NC=NC=2NC=C(C=3N=NN(C3)CC(=O)N(CC)CC)C12]",25
17,"O=c1[nH]cnc2[nH]cc(-c3cn(CCn4ccccc4=O)nn3)c12 [Compound 01C11, O=C1N(C=CC=C1)CCN2N=NC(C=3C=4C(=O)NC=NC4NC3)=C2]",52
